Experimental data published in PubChem BioAssay (NCI).
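Exposure lasted 48 hours, with cells grown in 96-well plates and compounds tested at five concentrations. GI50: concentration for 50% inhibition of growth. TGI is the concentration that stops growth completely.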

Assays:
Assay in all cases: NCI anticancer screen, dose series, 48 h
NCI-H522 lung = test system: NCI-H522 lung
MALME-3M melanoma = test system: MALME-3M melanoma
SN12C renal = test system: SN12C renal
SW-620 colon = test system: SW-620 colon
HS 578T breast = test system: HS 578T breast
LOX IMVI melanoma = test system: LOX IMVI melanoma
K-562 leukemia = test system: K-562 leukemia
CCRF-CEM leukemia = test system: CCRF-CEM leukemia
EKVX NSCLC = test system: EKVX NSCLC
TK-10 renal = test system: TK-10 renal

## CN(C)CCCN(c1nc(C(Cl)(Cl)Cl)ns1)c1nc(C(Cl)(Cl)Cl)ns1
NCI-H522 lung
  GI50: 1.71 µM
  TGI: 3.45 µM
MALME-3M melanoma
  GI50: 2.18 µM
  TGI: 5.01 µM
SN12C renal
  GI50: 3.42 µM
  TGI: 11.6 µM
SW-620 colon
  GI50: 1.67 µM
  TGI: 3.18 µM
HS 578T breast
  GI50: 1.72 µM
  TGI: 4.46 µM
LOX IMVI melanoma
  GI50: 1.58 µM
  TGI: 3.01 µM
K-562 leukemia
  GI50: 1.79 µM
  TGI: 3.93 µM
CCRF-CEM leukemia
  GI50: 2.45 µM
  TGI: 8.03 µM
EKVX NSCLC
  GI50: 3.32 µM
  TGI: 13 µM
TK-10 renal
  GI50: 1.93 µM
  TGI: 3.58 µM

## CCCc1cc2cc(-n3nc(C)c4c3CC(C)(C)CC4=O)cc(NC3CCC(O)CC3)c2c(=O)[nH]1 (stereo not given)
NCI-H522 lung
  GI50: 0.257 µM
  TGI: > 100 µM
MALME-3M melanoma
  GI50: 0.142 µM
  TGI: 3.34 µM
SN12C renal
  GI50: 0.0683 µM
  TGI: > 100 µM
SW-620 colon
  GI50: 0.0578 µM
  TGI: > 100 µM
HS 578T breast
  GI50: 0.989 µM
  TGI: > 100 µM
LOX IMVI melanoma
  GI50: 0.116 µM
  TGI: 1.07 µM
K-562 leukemia
  GI50: 0.0502 µM
  TGI: > 100 µM
CCRF-CEM leukemia
  GI50: 0.278 µM
  TGI: > 100 µM
EKVX NSCLC
  GI50: 1.53 µM
  TGI: > 100 µM
TK-10 renal
  GI50: 0.0964 µM
  TGI: > 100 µM

## Cn1ncc2c(/N=C/c3cccs3)[nH]c(=S)nc21
NCI-H522 lung
  GI50: > 68.2 µM
  TGI: > 100 µM
MALME-3M melanoma
  GI50: 34 µM
  TGI: > 80.7 µM
SN12C renal
  GI50: > 36 µM
  TGI: > 69.2 µM
SW-620 colon
  GI50: 31.5 µM
  TGI: > 100 µM
HS 578T breast
  GI50: 24.9 µM
  TGI: 77 µM
LOX IMVI melanoma
  GI50: 36.4 µM
  TGI: > 100 µM
K-562 leukemia
  GI50: 21.2 µM
  TGI: > 100 µM
CCRF-CEM leukemia
  GI50: 55.7 µM
  TGI: > 100 µM
EKVX NSCLC
  GI50: 41.1 µM
  TGI: 99.8 µM
TK-10 renal
  GI50: 40.6 µM
  TGI: > 85.2 µM

## CN[C@]12CC3(C=CC(=O)C=C3)O[C@@]1(Cc1ccc(OC)cc1)N(C)C(=O)N2
NCI-H522 lung
  GI50: 0.371 µM
  TGI: 2.14 µM
MALME-3M melanoma
  GI50: 2.69 µM
  TGI: 7.85 µM
SN12C renal
  GI50: 1.7 µM
  TGI: 7.13 µM
SW-620 colon
  GI50: 2.1 µM
  TGI: 6.99 µM
HS 578T breast
  GI50: 4.62 µM
  TGI: > 100 µM
LOX IMVI melanoma
  GI50: 1.56 µM
  TGI: 3.2 µM
K-562 leukemia
  GI50: 1.58 µM
  TGI: > 100 µM
CCRF-CEM leukemia
  GI50: 1.8 µM
  TGI: 3.72 µM
EKVX NSCLC
  GI50: 4.23 µM
  TGI: 19.1 µM
TK-10 renal
  GI50: 2.48 µM
  TGI: 6.72 µM

## Cc1cc(C)c(O)c(Cc2cccc(Cc3cc(C)cc(C)c3O)c2O)c1
NCI-H522 lung
  TGI: > 100 µM
MALME-3M melanoma
  TGI: > 100 µM
SN12C renal
  TGI: > 100 µM
SW-620 colon
  TGI: > 100 µM
HS 578T breast
  TGI: > 100 µM
LOX IMVI melanoma
  TGI: > 100 µM
K-562 leukemia
  TGI: > 100 µM
CCRF-CEM leukemia
  TGI: > 100 µM
EKVX NSCLC
  TGI: > 100 µM
TK-10 renal
  TGI: > 100 µM

## O=C1/C(=C\C(Cl)=C/c2ccc([N+](=O)[O-])cc2)SC(=S)N1CCc1ccc(O)cc1
NCI-H522 lung
  GI50: 0.502 µM
  TGI: 2.67 µM
MALME-3M melanoma
  GI50: 1.05 µM
  TGI: 2.48 µM
SN12C renal
  GI50: 0.33 µM
  TGI: 1.38 µM
SW-620 colon
  GI50: 0.324 µM
  TGI: 1.26 µM
HS 578T breast
  GI50: 0.354 µM
  TGI: 2.04 µM
LOX IMVI melanoma
  GI50: 0.187 µM
  TGI: 0.387 µM
K-562 leukemia
  GI50: 0.285 µM
  TGI: > 100 µM
CCRF-CEM leukemia
  GI50: 0.31 µM
  TGI: 5.67 µM
EKVX NSCLC
  GI50: 0.94 µM
  TGI: 2.21 µM
TK-10 renal
  GI50: 1.53 µM
  TGI: 3.25 µM

## COc1ccc(-c2cc(=O)c3c(OC)c(OC)c(OC)c(OC)c3o2)cc1OC
NCI-H522 lung
  TGI: > 100 µM
MALME-3M melanoma
  TGI: > 100 µM
SN12C renal
  TGI: > 100 µM
SW-620 colon
  TGI: > 100 µM
HS 578T breast
  TGI: 95.3 µM
LOX IMVI melanoma
  TGI: > 100 µM
K-562 leukemia
  TGI: > 100 µM
CCRF-CEM leukemia
  TGI: > 100 µM
EKVX NSCLC
  TGI: > 100 µM
TK-10 renal
  TGI: > 100 µM

## CCOC(=O)c1ccc(N(CCOS(C)(=O)=O)CCOS(C)(=O)=O)cc1C
NCI-H522 lung
  GI50: 18.8 µM
  TGI: 61.8 µM
MALME-3M melanoma
  GI50: 29 µM
  TGI: > 100 µM
SN12C renal
  GI50: 24.7 µM
  TGI: > 100 µM
SW-620 colon
  GI50: 88.2 µM
  TGI: > 100 µM
HS 578T breast
  GI50: 64.1 µM
  TGI: > 100 µM
LOX IMVI melanoma
  GI50: 29.1 µM
  TGI: > 100 µM
K-562 leukemia
  GI50: 49.7 µM
  TGI: > 100 µM
CCRF-CEM leukemia
  GI50: 10 µM
  TGI: > 100 µM
EKVX NSCLC
  GI50: 29.5 µM
  TGI: > 100 µM
TK-10 renal
  GI50: 50.7 µM
  TGI: > 100 µM

## Cc1n[nH]c(=S)n1/N=C/c1ccc(F)c(Oc2ccccc2)c1
NCI-H522 lung
  GI50: 48.2 µM
  TGI: > 100 µM
MALME-3M melanoma
  GI50: 65.7 µM
  TGI: > 100 µM
SN12C renal
  GI50: 95.6 µM
  TGI: > 100 µM
SW-620 colon
  GI50: 36.5 µM
  TGI: > 100 µM
HS 578T breast
  GI50: 33.2 µM
  TGI: > 100 µM
LOX IMVI melanoma
  GI50: 51.1 µM
  TGI: > 100 µM
K-562 leukemia
  GI50: 54.5 µM
  TGI: > 100 µM
CCRF-CEM leukemia
  GI50: 40.5 µM
  TGI: > 100 µM
EKVX NSCLC
  GI50: 32.8 µM
  TGI: 99.4 µM
TK-10 renal
  GI50: 43.9 µM
  TGI: > 100 µM

## C=C1C(=O)O[C@H]2[C@H]1CC/C(COC(=O)CCCCCCCCC(=O)OC/C1=C/CC[C@@]3(C)O[C@H]3[C@H]3OC(=O)C(=C)[C@@H]3CC1)=C\CC[C@@]1(C)O[C@@H]21
NCI-H522 lung
  GI50: 2.12 µM
  TGI: 4.04 µM
MALME-3M melanoma
  GI50: 1.84 µM
  TGI: 3.97 µM
SN12C renal
  GI50: 2.26 µM
  TGI: 5.32 µM
SW-620 colon
  GI50: 1.87 µM
  TGI: 3.87 µM
HS 578T breast
  GI50: 2.91 µM
  TGI: 9.88 µM
LOX IMVI melanoma
  GI50: 1.62 µM
  TGI: 3.08 µM
K-562 leukemia
  GI50: 2.6 µM
  TGI: 9.7 µM
CCRF-CEM leukemia
  GI50: 2.02 µM
  TGI: 11.8 µM
EKVX NSCLC
  GI50: 1.95 µM
  TGI: 4.29 µM
TK-10 renal
  GI50: 2.47 µM
  TGI: 4.74 µM
